From patent US20260284011A1, “COMPOUNDS FOR RESTORING SUSCEPTIBILITY TO BETA-LACTAM ANTIBIOTICS” (UNIVERSITY OF NOTRE DAME DU LAC, priority 2023, published 2026)
Where two headings read alike, the source gives them in different places.

What was measured:
XTT cytotoxicity assay = assay type: cell-based; conditions: human, hepg2 cells; HepG2; at 64 mg·L^−1; read-out: Cell viability
Procedure: (§1) We evaluated additionally the in vitro cytotoxicity of compound 4 using the XTT assay with HepG2 (liver) cells. Cell viability was 100% at 64 mg·L^−1.
(§2) XTT assay. Compound 4 was evaluated in triplicate in the XTT assay (XTT cell proliferation assay, Canvax, Spain) with HepG2 cells, as described previously (Eur. J. Med. Chem. 253, 115329 (2023)). GraphPad Prism 5 (San Diego, CA) was used to calculate IC50 values.

HepG2 (liver) cells = test: XTT cytotoxicity assay; assay type: cell-based; conditions: HepG2 cells
Procedure: as §1, §2

[1] = PK study, plasma and thighs; assay type: in vivo, mice; conditions: mouse; for Cmax at 4 h: sc, single subcutaneous dose 25 mg·kg^−1; for Cmax at 4 h / concentration at 8 h: mice
Procedure: Pharmacokinetics of Compound 4 and In Vivo Efficacy. We next evaluated the pharmacokinetics (PK) of compound 4 and its distribution to the thighs (sites of infection in the disease model) after a single subcutaneous dose at 25 mg·kg^−1 to mice.
Animals. Outbred 8-week-old female ICR mice for PK and neutropenic thigh infection studies were purchased from Envigo, Indianapolis, IN. The average weight of the mice for the PK study was 30 g (range 26.1 to 33.1 g); mice in the neutropenic thigh infection weights ranged from 24.2 to 37.7 g and were on average 29 g at the initiation of the study. Mice were housed in polycarbonate shoebox cages (for the PK study) or in disposable cages (for the infection studies) with ¼-inch corncob (The Andersons Inc., Maumee, OH) and Alpha-Dri (Shepherd Specialty Papers, Inc., Richland, MI) bedding with a 12-h light/dark cycle at 72° F. The animals were given food (Teklad 2918 irradiated extruded rodent diet) and water ad libitum. The food and water were autoclaved for the infection studies. All procedures were performed in accordance with and approved by the University of Notre Dame Institutional Animal Care and Use Committee.
PK study. Mice (n=15) were given a single subcutaneous dose of compound 4 at 25 mg·kg^−1 (100 μL of 7.5 mg-mL-1 solution in 20% DMSO/20% Tween-80/60% sterilized water). At 0.5, 1, 2, 4, and 8 h, mice were euthanized. Terminal blood was collected by cardiac puncture into heparinized (sodium heparin, Sigma-Aldrich, St. Louis, MO) syringes, and centrifuged (20,000×g at 4° C. for 15 min) to obtain plasma. A 60-μL aliquot of plasma was mixed with 60 μL of a 10 μg·mL^−1 solution of internal standard in acetonitrile. After centrifugation (17,000×g for 10 min), a 60-μL of the supernatant was taken for ultraperformance liquid chromatography (UPLC) analysis with UV detection.
Thighs were excised, weighed, and mixed with 100 μL of 10 μg·mL^−1 of internal standard in acetonitrile. Acetonitrile (900 μL) was added, and the mixture was homogenized on a Bullet blender (Next Advance, Inc., Averill Park, NY). After centrifugation at 17,000×g for 10 min, the supernatant was collected. The extraction was repeated two additional times. The combined supernatants were concentrated on a speed vac. The residue was dissolved in 100 μL of acetonitrile, and the mixture was centrifuged. A 60-μL aliquot of the supernatant was placed in an autosampler vial.
Plasma and thigh samples were analyzed on a Waters Acquity UPLC (Waters Corp., Milford, MA) coupled with a diode array detector with UV detection at 320-330 nm. A C18 Atlantis™ T3 column 2.1 i.d.×100 mm length 3 μm-particle size column was used at a flow rate of 0.5 mL/min. The gradient consisted of 0.5-min from 80% A/20% B to 65% A/35% B, 4.5-min to 25% A/75% B, 0.5-min to 65% A/35% B, 2-min to 80% A/20% B, where A=0.1% formic acid in water and B=0.1% formic acid in acetonitrile. Internal standard and compound 4 eluted at 4.2 and 4.6 min, respectively.
Calibration curves containing known concentrations of compound 4 (ranging from 0 to 200 μg·g^−1 tissue for thighs or 0 to 40 μg·mL^−1 for plasma) and internal standard in blank control thigh tissue or control plasma were prepared. Concentrations in the thighs and plasma were determined from the calibration curve regression parameters relative to internal standard.

HFH29568 = test: Time-kill assay; assay type: cell-based, Staphylococcus aureus
Procedure: Time-kill assay. MRSA strains (NRS21, NRS70, NRS382, NRS404, HFH 29568, and HFH 30495) were grown overnight on tryptic soy agar plate. Bacteria were diluted in Muller-Hinton broth containing 2% NaCl to […] CFU·mL^−1. […] For MEM and CPT, cation-adjusted Muller-Hinton broth without 2% NaCl was used. Aliquots were taken at 0, 3, 6, 9, 12, and 24 h and were diluted serially for bacterial counts. The assay was done in triplicate.

Compound	viability (XTT cytotoxicity assay)	in vitro cytotoxicity (HepG2 (liver) cells)	Tmax ([1]; plasma and thigh, plasma and thighs, 25 mg·kg^−1 sc, read-out: time at which maximum concentrations were achieved)	Cmax at 4 h ([1]; plasma, read-out: Maximum concentration in plasma)	concentration at 8 h ([1]; plasma, 25 mg·kg^−1 sc, read-out: concentration at 8 h in plasma)	Cmax at 4 h ([1]; thigh, read-out: Maximum concentration in thighs)	concentration at 8 h ([1]; thigh, 25 mg·kg^−1 sc, read-out: concentration at 8 h in thighs)	log10 decrease in bacterial growth (HFH29568; MEM by itself, at 6 h)	activity of MEM by itself (HFH29568; by 24 h)
N#Cc1ccc2nc(SCB(O)O)n(Cc3ccc(C(F)(F)F)cc3C(F)(F)F)c2c1 [Compound 4, (((1-(2,4-bis(trifluoro-methyl)benzyl)-6-cyano-1H-benzo[d]imidazol-2-yl)thio)methyl)boronic acid]	100%	not toxic to HepG2 cells	4 h	8500 ng/mL	3900 ng/mL	28000 ng/mL	20000 ng/mL	–	–
C[C@@H](O)[C@H]1C(=O)N2C(C(=O)O)=C(S[C@@H]3CN[C@H](C(=O)N(C)C)C3)[C@H](C)[C@H]12 [MEM, meropenem]	–	–	–	–	–	–	–	2 log10	no activity
